Data: patent publication US20140303164A1, “THERAPEUTIC COMPOUNDS” (Gilead Sciences, Inc., priority 2013, published 2014)

Experiments:
HIV-IIIb = test: Test A: Antiviral Assay in MT4 Cells; assay type: cell-based, HIV-1; settings: for inhibition at 0.2 µM / inhibition at 2 µM: Human immunodeficiency virus 1, IIIB, MT4, 120 h; for inhibition at 0.2 µM: read-out: % inhibition at 0.2 μM; for inhibition at 2 µM: read-out: % inhibition at 2 μM
Method: Test A: Antiviral Assay in MT4 Cells
(§1) MT-4 cells were next mixed with HIV-IIIb at an m.o.i of 0.003 for 1 hour, after which time 35 μL of virus/cell mixture (2000 cells) was immediately added to each well containing 40 μL of diluted compound. The plates were then incubated at 37° C. for 5 days. […] Cell lysis was carried out by incubating at room temperature for 10 min and then chemiluminescence was read.

[1] = Test B: Cytotoxicity Assay; assay type: cell-based; settings: human, uninfected MT-4 cells, same protocol as Test A
Method: as §1
Test B: Cytotoxicity Assay
Compound cytotoxicity and the corresponding CC50 values was determined using the same protocol as described in the antiviral assay (Test A) except that uninfected cells were used.

## CC(C)(O)C#Cc1ccc(-c2cccc3c(=O)[nH]c(=O)[nH]c23)c([C@H](Cc2cc(F)cc(F)c2)NC(=O)Cn2nc(C(F)(F)F)c3c2C(F)(F)[C@@H]2C[C@H]32)n1 [Compound 17, 2-((3bS,4aR)-5,5-difluoro-3-(trifluoromethyl)-3b,4,4a,5-tetrahydro-1H-cyclopropa[3,4]cyclopenta[1,2-c]pyrazol-1-yl)-N—((S)-2-(3,5-difluorophenyl)-1-(3-(2,4-dioxo-1,2,3,4-tetrahydroquinazolin-8-yl)-6-(3-hydroxy-3-methylbut-1-ynyl)pyridin-2-yl)ethyl)acetamide]
HIV-IIIb
  inhibition at 0.2 µM: 95%

## CC(C)(O)C#Cc1ccc(-c2ccc(F)c(C(N)=O)c2)c([C@H](Cc2cc(F)cc(F)c2)NC(=O)Cn2nc(C(F)(F)F)c3c2C(F)(F)[C@@H]2C[C@H]32)n1 [Compound 18, 5-(2-((S)-1-(2-((3bS,4aR)-5,5-difluoro-3-(trifluoromethyl)-3b,4,4a,5-tetrahydro-1H-cyclopropa[3,4]cyclopenta[1,2-c]pyrazol-1-yl)acetamido)-2-(3,5-difluorophenyl)ethyl)-6-(3-hydroxy-3-methylbut-1-yn-1-yl)pyridin-3-yl)-2-fluorobenzamide]
HIV-IIIb; percent inhibition of virus-induced cell killing at 0.2 μM, comparison with previously published compounds (WO 2013/006738)
  Response at 0.2 μM: 96%
HIV-IIIb; percent inhibition of virus-induced cell killing at 2 μM, comparison with previously published compounds (WO 2013/006738)
  Response at 2 μM: 90%

## Cn1nc(NS(C)(=O)=O)c2c(Cl)ccc(-c3ccc(C#CC(C)(C)O)nc3[C@H](Cc3cc(F)cc(F)c3)NC(=O)Cn3nc(C(F)F)c4c3C(F)(F)[C@@H]3C[C@H]43)c21 [Compound 19G, (S)—N-(1-(3-(4 chloro-1-methyl-3-(methylsulfonamido)-1H-indazol-7-yl)-6-(3-hydroxy-3-methylbut-1-ynyl)pyridin-2-yl)-2-(3,5-difluorophenyl)ethyl)-2-((3bS,4aR)-5,5-difluoro-3-(difluoromethyl)-3b,4,4a,5-tetrahydro-1H-cyclopropa[3,4]cyclopenta[1,2-c]pyrazol-1-yl)acetamide]
HIV-IIIb
  inhibition at 0.2 µM: 97%
  inhibition at 2 µM: 93%

## Cn1nc(NS(C)(=O)=O)c2c(F)ccc(-c3ccc(C#CC(C)(C)O)nc3[C@H](Cc3cc(F)cc(F)c3)NC(=O)Cn3nc(C(F)F)c4c3C(F)(F)[C@@H]3C[C@H]43)c21 [Compound 75, 2-((3b-S,4aR)-3-(difluoromethyl)-5,5-difluoro-3b,4,4a,5-tetrahydro-1H-cyclopropa[3,4]cyclopenta[1,2-c]pyrazol-1-yl)-N—((S)-2-(3,5-difluorophenyl)-1-(3-(4-fluoro-1-methyl-3-(methylsulfonamido)-1H-indazol-7-yl)-6-(3-hydroxy-3-methylbut-1-yn-1-yl)pyridin-2-yl)ethyl)acetamide]
HIV-IIIb
  inhibition at 0.2 µM: 92%
  inhibition at 2 µM: 93%

## Cn1nc(NS(C)(=O)=O)c2c(Cl)ccc(-c3ccc(C#CC(C)(C)O)nc3[C@H](Cc3cc(F)cc(F)c3)NC(=O)Cn3nc(C(F)(F)F)c4c3C(F)(F)[C@@H]3C[C@H]43)c21 [Compound 78, N—((S)-1-(3-(4-chloro-1-methyl-3-(methylsulfonamido)-1H-indazol-7-yl)-6-(3-hydroxy-3-methylbut-1-yn-1-yl)pyridin-2-yl)-2-(3,5-difluorophenyl)ethyl)-2-((3b-S,4aR)-5,5-difluoro-3-(trifluoromethyl)-3b,4,4a,5-tetrahydro-1H-cyclopropa[3,4]cyclopenta[1,2-c]pyrazol-1-yl)acetamide]
HIV-IIIb
  inhibition at 0.2 µM: 98%
  inhibition at 2 µM: 98%

## Cc1ccc(-c2ccc(C#CC(C)(C)O)nc2[C@H](Cc2cc(F)cc(F)c2)NC(=O)Cn2nc(C(F)F)c3c2C(F)(F)[C@@H]2C[C@H]32)c2c1c(NS(C)(=O)=O)nn2C [Compound 112D, 2-((3b-S,4aR)-3-(difluoromethyl)-5,5-difluoro-3b,4,4a,5-tetrahydro-1H-cyclopropa[3,4]cyclopenta[1,2-c]pyrazol-1-yl)-N—((S)-2-(3,5-difluorophenyl)-1-(3-(1,4-dimethyl-3-(methylsulfonamido)-1H-indazol-7-yl)-6-(3-hydroxy-3-methylbut-1-yn-1-yl)pyridin-2-yl)ethyl)acetamide]
HIV-IIIb
  inhibition at 0.2 µM: 97%
  inhibition at 2 µM: 97%

## Cn1nc(NS(C)(=O)=O)c2c(Cl)ccc(-c3ccc(C#CC(C)(C)N)nc3[C@H](Cc3cc(F)cc(F)c3)NC(=O)Cn3nc(C(F)F)c4c3C(F)(F)[C@@H]3C[C@H]43)c21 [Compound 127, N—((S)-1-(6-(3-amino-3-methylbut-1-yn-1-yl)-3-(4-chloro-1-methyl-3-(methylsulfonamido)-1H-indazol-7-yl)pyridin-2-yl)-2-(3,5-difluorophenyl)ethyl)-2-((3bS,4aR)-3-(difluoromethyl)-5,5-difluoro-3b,4,4a,5-tetrahydro-1H-cyclopropa[3,4]cyclopenta[1,2-c]pyrazol-1-yl)acetamide]
HIV-IIIb
  inhibition at 0.2 µM: 92%
  inhibition at 2 µM: 92%

## C#Cc1ccc(-c2ccc(Cl)c3cnn(C)c23)c([C@H](Cc2cc(F)cc(F)c2)NC(=O)Cn2nc(C(F)F)c3c2C(F)(F)[C@@H]2C[C@H]32)n1 [Compound 136D, N—((S)-1-(3-(4-chloro-1-methyl-1H-indazol-7-yl)-6-ethynylpyridin-2-yl)-2-(3,5-difluorophenyl)ethyl)-2-((3b-S,4aR)-3-(difluoromethyl)-5,5-difluoro-3b,4,4a,5-tetrahydro-1H-cyclopropa[3,4]cyclopenta[1,2-c]pyrazol-1-yl)acetamide]
[1]
  CC50 at 5 days: 7.43 µM

## COc1ccc(-c2ccc(C#CC(C)(C)O)nc2[C@H](Cc2cc(F)cc(F)c2)NC(=O)Cn2nc(C(F)F)c3c2C(F)(F)[C@@H]2C[C@H]32)c2c1c(NS(C)(=O)=O)nn2C [Compound 141D, 2-((3b-S,4aR)-3-(difluoromethyl)-5,5-difluoro-3b,4,4a,5-tetrahydro-1H-cyclopropa[3,4]cyclopenta[1,2-c]pyrazol-1-yl)-N—((S)-2-(3,5-difluorophenyl)-1-(6-(3-hydroxy-3-methylbut-1-yn-1-yl)-3-(4-methoxy-1-methyl-3-(methylsulfonamido)-1H-indazol-7-yl)pyridin-2-yl)ethyl)acetamide]
HIV-IIIb
  inhibition at 0.2 µM: 100%
  inhibition at 2 µM: 100%

## Cn1nc(NS(C)(=O)=O)c2cccc(-c3cnc([C@H](Cc4cc(F)cc(F)c4)NC(=O)Cn4nc(C(F)F)c5c4C(F)(F)[C@@H]4C[C@H]54)c(-c4cccc5c(NS(C)(=O)=O)nn(C)c45)n3)c21 [Compound 146I, N—((S)-1-(3,5-bis(1-methyl-3-(methylsulfonamido)-1H-indazol-7-yl)pyrazin-2-yl)-2-(3,5-difluorophenyl)ethyl)-2-((3b-S,4aR)-3-(difluoromethyl)-5,5-difluoro-3b,4,4a,5-tetrahydro-1H-cyclopropa[3,4]cyclopenta[1,2-c]pyrazol-1-yl)acetamide]
[1]
  CC50 at 5 days: 33.5 µM

## Cn1nc(NS(C)(=O)=O)c2c(Cl)ccc(-c3ccc(C#CC(C)(C)O)nc3[C@H](Cc3cc(F)cc(F)c3)NC(=O)Cn3nc(C(=O)O)c4c3C(F)(F)[C@@H]3C[C@H]43)c21 [Compound 147, (3bS,4aR)-1-(2-(((S)-1-(3-(4-chloro-1-methyl-3-(methylsulfonamido)-1H-indazol-7-yl)-6-(3-hydroxy-3-methylbut-1-yn-1-yl)pyridin-2-yl)-2-(3,5-difluorophenyl)ethyl)amino)-2-oxoethyl)-5,5-difluoro-3b,4,4a,5-tetrahydro-1H-cyclopropa[3,4]cyclopenta[1,2-c]pyrazole-3-carboxylic acid]
[1]
  CC50 at 5 days: > 53.2 µM

## Cn1nc(NS(C)(=O)=O)c2c(Cl)ccc(-c3ccc(C#CC(C)(O)C(F)F)nc3[C@H](Cc3cc(F)cc(F)c3)NC(=O)Cn3nc(C(F)F)c4c3C(F)(F)[C@@H]3C[C@H]43)c21 (stereo partly drawn) [Compound 169, N-((1S)-1-(3-(4-chloro-1-methyl-3-(methylsulfonamido)-1H-indazol-7-yl)-6-(4,4-difluoro-3-hydroxy-3-methylbut-1-yn-1-yl)pyridin-2-yl)-2-(3,5-difluorophenyl)ethyl)-2-((3b-S,4aR)-3-(difluoromethyl)-5,5-difluoro-3b,4,4a,5-tetrahydro-1H-cyclopropa[3,4]cyclopenta[1,2-c]pyrazol-1-yl)acetamide]
HIV-IIIb
  inhibition at 0.2 µM: 92%
  inhibition at 2 µM: 92%

## Cn1nc(NS(=O)(=O)C(F)(F)F)c2c(Cl)ccc(-c3ccc(C#CC(C)(C)O)nc3[C@H](Cc3cc(F)cc(F)c3)NC(=O)Cn3nc(C(F)F)c4c3C(F)(F)[C@@H]3C[C@H]43)c21 [Compound 171D, N—((S)-1-(3-(4-chloro-1-methyl-3-(trifluoromethylsulfonamido)-1H-indazol-7-yl)-6-(3-hydroxy-3-methylbut-1-yn-1-yl)pyridin-2-yl)-2-(3,5-difluorophenyl)ethyl)-2-((3b-S,4aR)-3-(difluoromethyl)-5,5-difluoro-3b,4,4a,5-tetrahydro-1H-cyclopropa[3,4]cyclopenta[1,2-c]pyrazol-1-yl)acetamide]
[1]
  CC50 at 5 days: > 42.5 µM

## Cn1nc(N[S+](C)[O-])c2c(Cl)ccc(-c3ccc(C#CC(C)(C)O)nc3[C@H](Cc3cc(F)cc(F)c3)NC(=O)Cn3nc(C(F)F)c4c3C(F)(F)[C@@H]3C[C@H]43)c21 (stereo partly drawn) [Compound 180C, N-((1S)-1-(3-(4-chloro-1-methyl-3-(methylsulfinamido)-1H-indazol-7-yl)-6-(3-hydroxy-3-methylbut-1-yn-1-yl)pyridin-2-yl)-2-(3,5-difluorophenyl)ethyl)-2-((3b-S,4aR)-3-(difluoromethyl)-5,5-difluoro-3b,4,4a,5-tetrahydro-1H-cyclopropa[3,4]cyclopenta[1,2-c]pyrazol-1-yl)acetamide]
HIV-IIIb
  inhibition at 0.2 µM: 100%
  inhibition at 2 µM: 100%
